A short description of the data set: In vivo pharmacokinetic study, plasma levels by LC-MS/MS. More on the design: species or system BALB/c mice. Conditions: mice, single dose 100 mg/kg i.p. The protocol:
In vivo pharmacokinetic study - Adult male specific-pathogen-free BALB/c mice, provided by the Faculty of Veterinary Sciences, National University of La Plata (FCV-UNLP) were used. Animals were housed in cages with four animals per cage, under a 12 h light/dark cycle and controlled temperature, provided with water and food ad libitum and environmental enrichment. A minimum period of six days was given after transport for physiological acclimatisation before any procedure. Five groups of mice (n = 3 per group) were used, one per sampling time. […] Plasma was obtained immediately after blood collection by centrifugation for 10 min at 4,000 rpm and conserved at -17 °C until quantification. […]
The equipment used was a Waters Alliance 2695 HPLC coupled to a tandem quadrupole mass spectrometer, Premier XE (Waters Corp.), equipped with an electrospray ionisation source operating in positive mode (ESI+). […] The mass spectrometer was configured to operate in multiple reaction monitoring (MRM) mode, employing two mass transitions for the compound, one for quantification (411.0 > 164.9) and the other for confirmation (413.2 > 164.9).
Unbound drug concentrations in plasma were estimated by multiplying the analytically determined total drug concentrations by the unbound fraction predicted by Deep-PK.[27]

Here are results for one compound from article PMC12799219, “In vitro and in vivo studies on the activity and selectivity of butoconazole in experimental infection by Trypanosoma cruzi” (Memórias do Instituto Oswaldo Cruz, 2026).

Each structure is given as a SMILES string.

Take `Clc1ccc(CCC(Cn2ccnc2)Sc2c(Cl)cccc2Cl)cc1` (centres unmarked) [BTZ, butoconazole]: the “mean peak total plasma concentration” value is 25.9 µM and the “time of mean peak plasma concentration” value stood at 2 h.
